Data from patent US20230200362A1, “MODEL ORGANISMS HUMANIZED FOR DRUG DISCOVERY AND SCREENING” (NemaMetrix, Inc, priority 2019, published 2023).
pEC50: −log10 of the molar value. Read-outs that look alike come from different tables or passages of the source.

Key:
[1] = mouse model; combination with cannabidiol; cited from earlier work
DAF-12 [2] = target: T1, DAF-12 (Caenorhabditis elegans, UniProt G5EFF5); assay: lin-42::GFP reporter agonist response; format: in vivo, C. elegans
T1 construct: endogenous in cells; host or cells: whole C. elegans animals carrying lin-42::GFP or mtl-1::GFP promoter-fusion reporters
T1 sequence (G5EFF5 1-753): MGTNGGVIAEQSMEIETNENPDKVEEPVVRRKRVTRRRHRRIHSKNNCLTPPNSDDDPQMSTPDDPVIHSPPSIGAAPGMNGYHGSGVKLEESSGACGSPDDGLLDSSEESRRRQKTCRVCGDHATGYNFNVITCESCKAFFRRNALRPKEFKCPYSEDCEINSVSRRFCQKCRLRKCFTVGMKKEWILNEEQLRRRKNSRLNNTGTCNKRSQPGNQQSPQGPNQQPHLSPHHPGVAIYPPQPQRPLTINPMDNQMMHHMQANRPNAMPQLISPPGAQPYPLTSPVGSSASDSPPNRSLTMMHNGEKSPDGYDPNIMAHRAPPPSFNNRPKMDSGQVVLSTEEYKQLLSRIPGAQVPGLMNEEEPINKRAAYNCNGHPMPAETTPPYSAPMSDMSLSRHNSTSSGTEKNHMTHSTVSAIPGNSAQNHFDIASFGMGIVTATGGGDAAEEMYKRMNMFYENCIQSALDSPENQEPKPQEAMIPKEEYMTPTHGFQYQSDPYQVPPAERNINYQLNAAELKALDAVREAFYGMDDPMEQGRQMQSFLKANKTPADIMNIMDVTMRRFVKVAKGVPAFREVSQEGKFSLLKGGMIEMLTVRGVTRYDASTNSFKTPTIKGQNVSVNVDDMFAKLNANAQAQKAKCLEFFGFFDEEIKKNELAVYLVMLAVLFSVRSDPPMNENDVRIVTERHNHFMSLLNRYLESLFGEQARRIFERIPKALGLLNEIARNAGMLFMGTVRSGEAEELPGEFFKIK
Excerpt: (§1) Chimeric proteins made with the daf-12 nuclear hormone receptor (NHR) can be used for discovery of agonist and antagonist of human NHRs and detect ligands of human NHRs. In C. elegans, the daf-12 protein activity is a key regulator of development. When daf-12 is activated by dafachronic acid under normal growth conditions, animals will proceed to their reproductive life stage. However, when animals face unfavorable conditions, dafachronic acid is not produced and the dauer program is activated leading animals into a stress-resistant arrested state. The unfavorable conditions can be mimicked by treatment with a DAF-12 antagonist, dafadine. Dafadine treatment overcomes the growth condition signal and animals enter the arrested state. Reporter lines can be used to monitor daf-12 chimera activity. In order to create reporter lines for agonist and antagonist discovery, the transcriptional response to treatment with dafachronic acid or dafadine was determined. Dauer animals were treated with 500 nM dafachronic acid and harvested for RNA preparation after four hours of exposure. RNA samples were processed and sent for RNA sequence analysis. […]
(§2) In this illustrative example, animals in the first larval stage were treated with 100uM dafadine for four hours and harvested for RNA preparation and analysis. Two reporter lines were identified by observation of fluorescence after drug treatment. […]

C. elegans = assay: phenotypic assay (% adult survival); format: in vivo
DAF-12 [3] = target: T1, DAF-12; assay: mtl-1::GFP reporter antagonist response; format: in vivo, C. elegans
Excerpt: as §1, §2

pharynx::SLC6A4 = assay: ScreenChip pharyngeal pumping frequency in SLC6A4 transgenic C. elegans; format: in vivo; details: 10 mM serotonin, first-day adults, 20 minutes incubation; FIG. 2B
Excerpt: Provided herein are transgenic nematodes and methods of preparing same for expression, as well as methods for using the same drug discovery for human therapeutic targets, such as that illustrated in FIG. 1 and described in more detail herein, wherein the therapeutic target gene is first optimized for expression in a host nematode and then incorporated into the genome of the nematode. Human Solute Carrier Family 6 Member 4 (SLC6A4) is known to transport serotonin out of the synaptic space, thus terminating the action of serotonin. […] Inhibitors of SLC6A4, selective serotonin reuptake inhibitors (SSRls), are commonly used to treat major depressive disorder and anxiety but are also known to cause many unpleasant side-effects. New SSRls can be discovered using the SLC6A4 overexpressing C. elegans transgenic nematodes described in this illustrative example. As shown below, C. elegans transgenic animals overexpressing human SLC6A4 in the pharyngeal muscle show a decrease in pumping frequency when stimulated to pump by food (a mild stimulus) as compared to the wildtype. These animals can be screened to identify novel SSRls. […] Each EPG recording is two minutes in duration and the experiment is replicated in triplicate on different days. […]

STXBP1(R406H) = details: strain containing the R406H variant exposed to trehalose; cited from earlier work

## NC(=O)N1c2ccccc2C=Cc2ccccc21 [carbamazepine]
[1]
  interaction with CBD: antagonize

## dafachronic acid
DAF-12 [2]; lin-42::GFP reporter vs phenotype
  sensitivity of reporter versus phenotypic assay: at least 40 x
DAF-12 [2]; titrated with dafachronic acid, FIG. 3D
  pEC50: ~9.31
C. elegans; dafachronic acid, FIG. 3E, read-out: EC50, animal's phenotypic response
  pEC50: 7.77

## dafadine
C. elegans; dafadine, read-out: EC50, phenotypic assay
  pEC50: 4.32
DAF-12 [3]; mtl-1::GFP reporter vs phenotypic assay
  sensitivity of reporter versus phenotypic assay: 9 x
DAF-12 [3]; titrated with dafadine, FIG. 3C
  pEC50: 5.28

## NCCc1c[nH]c2ccc(O)cc12 [serotonin, 5-Hydroxytryptamine]
pharynx::SLC6A4
  rate of pharyngeal pumping in SLC6A4 line: restored

## OC[C@H]1O[C@H](O[C@H]2O[C@H](CO)[C@@H](O)[C@H](O)[C@H]2O)[C@H](O)[C@@H](O)[C@@H]1O [trehalose]
STXBP1(R406H)
  levels of aldicarb-induced paralysis: increase to wild-type levels

## CC[C@@H](C(N)=O)N1CCCC1=O [levetiracetam]
[1]
  interaction with CBD: acts synergistically
